Consider twelve molecules from PMC4479967 (Journal of molecular neuroscience : MN, 2015).

“Also recorded” adds a separate entry of the source.

Data set [1] concerns AR42J cells. To be noted: cited from earlier work.
Data set [2] relates to ERK tyrosine phosphorylation in NCI-H727 cells. As to the kind of experiment: ERK tyrosine phosphorylation. The format is cell-based, human. Particulars: for Inhibition of CCK-8-induced ERK tyrosine phosphorylation: Fig. 2C; for Inhibition of CCK-8-induced ERK phosphorylation, in words / Inhibition of CCK-8-induced ERK phosphorylation (T. Moody, unpublished): NCI-H727 cells; for Inhibition of CCK-8-induced ERK phosphorylation, in words: concentration not given at this place.

Data set [3] concerns NCI-H727 cells. Nature of the data set: Clonogenic assay, clonal growth of NCI-H727 cells. Particulars: for Effect on CCK-8-stimulated increase in colony number: CI-988 3 µM or gefitinib 1 µM, CCK-8 10 nM.
The subject of data set [4] is NCI-H727 cells. As to the kind of experiment: MTT proliferation assay, NCI-H727 cells. (Tetrazolium assays rely on reduction of a dye to a coloured formazan, in cell work by metabolically active cells.)
In data set [5] the test system is reactive oxygen species in NCI-H727 cells. As to the kind of experiment: Reactive oxygen species in NCI-H727 cells. The format is cell-based, human. To be noted: CI-988 (10 µM, Table II), Tiron unpublished (T. Moody).
Data set [6] concerns cytosolic Ca2+ in NCI-H727 cells. Nature of the data set: Cytosolic Ca2+ in Fura-2AM loaded NCI-H727 cells. The format is cell-based, human. To be noted: for Effect on basal cytosolic Ca2+: CI-988 1 µM (Fig. 3D), L-364,718 concentration not printed (Fig. 3C).
The subject of data set [7] is SCLC. To be noted: basal or CCK-8-stimulated growth; ref Moody and Jensen, 2001; cited from earlier work.
Data set [8] deals with EGFR tyrosine phosphorylation in NCI-H727 cells. As to the kind of experiment: EGFR tyrosine phosphorylation. Type of data set: cell-based, human. Particulars: for Significance of inhibition of CCK-8-induced EGFR tyrosine phosphorylation: Fig. 2B; for Inhibition of CCK-8-induced EGFR tyrosine phosphorylation, in words: NCI-H727 cells, concentration not given at this place.
Data set [9] concerns TGF α secretion from NCI-H727 cells. Nature of the data set: TGF α secretion from NCI-H727 cells. The format is cell-based, human. To be noted: preliminary data, T. Moody unpublished.
For data set [10], the system named is SCLC cells. Particulars: ref Staley et al., 1990; cited from earlier work.
Data set [11] deals with CCK1R. Particulars: ref Jensen et al., 1989; cited from earlier work.
For data set [12], the system named is CCK2R. Particulars: ref Innes and Snyder, 1980; cited from earlier work.
Data set [13] deals with GLC19 cells. Particulars: literature discussion, ref Sethi et al., 1993; cited from earlier work.
The conditions of data set [14]: cited from earlier work.
For data set [15], the system named is NCI-H510 cells. Particulars: 0.1 µM; ref Sethi et al., 1993; cited from earlier work.
Where [16] appears, read: 10 µM as printed in legend (Fig. 4C).
[17] abbreviates: 5 mM NAC or Tiron (Fig. 4A, B), p < 0.05 relative to CCK-8.

Turning to `COc1cc2ncnc(Nc3cccc(Cl)c3)c2cc1OC` [AG1478], in data set [1] (ref Piiper et al., 2003), the “Effect on CCK-8-induced EGFR and ERK tyrosine phosphorylation in AR42J cells” value is reported as “inhibited”.

For the molecule `C[C@](Cc1c[nH]c2ccccc12)(NC(=O)OC1[C@H]2C[C@@H]3C[C@@H](C[C@H]1C3)C2)C(=O)NC[C@H](NC(=O)CCC(=O)O)c1ccccc1` (stereo partly drawn) [CI-988], the “Inhibition of CCK-8-induced ERK tyrosine phosphorylation” value is “not 1 µM” in data set [2] (CI-988 1 µM) and “significantly inhibited” in data set [2] (CI-988 10 µM, p < 0.05 relative to CCK-8). Further, the “Inhibition of CCK-8-induced ERK phosphorylation, in words” value in [2] was “significantly inhibited”. The “Inhibition of CCK-8-induced ERK phosphorylation (T. Moody, unpublished)” value in [2] was “blocked”. Further, the “Effect on total ERK” value in data set [2] (Western blot, Fig. 2A) is recorded as “no effect”. Further, the “Antagonism of gastrin-17-induced ERK tyrosine phosphorylation” value in data set [2] (data not shown) is on record as “antagonized”. Moreover, in data set [3] (CI-988 3 uM + 10 nM CCK-8 (CCK-8 alone 74 ± 9), mean ± S.D. of 3 determinations), the “Colony number + 10 nM CCK-8” value is 44 ± 5. Further, the “Effect on CCK-8-stimulated increase in colony number” value in data set [3] is listed as “reversed”. The Colony number in data set [3] (CI-988 3 uM, no CCK-8, control 42± 6, mean ± S.D. of 3 determinations, 2 weeks) came to 21 ± 3. Besides, the “Reduction of colony number” value in data set [3] (CI-988 (3 µM), no CCK-8) was 50%. Moreover, the “Effect on NCI-H727 proliferation, in words” value in data set [3] (NCI-H727 cells) is on record as “inhibit proliferation”. Also, in [3] (NCI-H727 cells), the “Effect on basal growth or growth stimulated by CCK-8, in words” value is “inhibited the basal growth of NCI-H727 cells or that stimulated by CCK-8”. For the same molecule, the “Potentiation of growth inhibitory effects of gefitinib” value in [4] (NCI-H727 cells) is “potentiated the growth inhibitory effects of gefitinib”. The “Inhibition of CCK-8-induced ROS increase, in words” value in data set [5] is reported as “blocked significantly; also recorded: inhibited”. For the same molecule, the “Effect on basal cytosolic Ca2+” value in [6] was “no effect”. Besides, the “Effect on SCLC growth” value in [7] is on record as “inhibit”. The “Inhibition of CCK-8-induced EGFR tyrosine phosphorylation” value in [8] (CI-988 1 µM vs 0.1 µM CCK-8 (Fig. 2A)) is recorded as “weakly”; in data set [8] (CI-988 10 µM vs 0.1 µM CCK-8 (Fig. 2A)) it was “strongly”. Moreover, the “Significance of inhibition of CCK-8-induced EGFR tyrosine phosphorylation” value in data set [8] (CI-988 1 µM) is given as “not 1 µM”; in data set [8] (CI-988 10 µM, p < 0.01 relative to CCK-8) it was “significantly inhibited”. Further, the “Inhibition of CCK-8-induced EGFR tyrosine phosphorylation, in words” value in [8] is “blocked; also recorded: significantly inhibited”. Moreover, the “Effect on total EGFR” value in data set [8] (Western blot, Fig. 2A) is recorded as “no effect”. Besides, the “Antagonism of gastrin-17-induced EGFR tyrosine phosphorylation” value in data set [8] (data not shown) is “antagonized”.

For `CNC(=O)[C@H](Cc1c[nH]c2ccccc12)NC(=O)[C@@H](CC(=O)NO)CC(C)C` [GM6001], in [2], the “Inhibition of CCK-8-induced ERK phosphorylation, in words” value is “significantly inhibited”. The “Effect on CCK-8-stimulated secretion of TGF α” value in data set [9] is “inhibits”. Besides, in [8] (setting [16]), the “Effect on basal EGFR tyrosine phosphorylation” value is recorded as “no effect”. The “Inhibition of CCK-8-induced EGFR tyrosine phosphorylation” value in [8] (GM6001 1 µM as printed in text (Fig. 4C, D), p < 0.01 relative to CCK-8) is “significantly inhibited”. Also, the “Inhibition of CCK-8-induced EGFR transactivation” value in data set [8] (GM6001 10 µM as printed in legend of Fig. 4C) is listed as “inhibited the increase in EGFR transactivation”. For the same molecule, the “Inhibition of CCK-8-induced EGFR tyrosine phosphorylation, in words” value in data set [8] is “blocked; also recorded: significantly inhibited”.

In the case of `COc1cc2ncnc(Nc3ccc(F)c(Cl)c3)c2cc1OCCCN1CCOCC1` [Gefitinib], the “Effect on CCK-8-stimulated increase in colony number” value in [3] is recorded as “reversed”. Moreover, the “Effect on basal growth or growth stimulated by CCK-8, in words” value in data set [3] (NCI-H727 cells) is reported as “inhibited the basal growth of NCI-H727 cells or that stimulated by CCK-8”. Moreover, in [3] (gefitinib (1 µM), no CCK-8), the “Reduction of colony number” value turned out to be 37%. Besides, the “Increase in cytotoxicity of gefitinib in presence of CI-988” value in data set [4] (gefitinib with CI-988) is listed as “approximately an order of magnitude”.

Regarding `CN1C(=O)[C@@H](NC(=O)c2cc3ccccc3[nH]2)N=C(c2ccccc2)c2ccccc21` [L-364,718], the “Antagonism of effects of CCK-8 on SCLC cells” value in data set [10] is listed as “not L-364,718”. Moreover, the “Effect on basal cytosolic Ca2+” value in data set [6] was “no effect”. Also, in data set [11], the “CCK1R antagonism, in words” value is “antagonized”.

As to `Cc1cccc(NC(=O)N[C@@H]2N=C(c3ccccc3)c3ccccc3N(C)C2=O)c1` [L-365,260], the “Antagonism of effects of CCK-8 on SCLC cells” value in [10] is reported as “blocked”. In data set [7], the “Effect on SCLC growth” value is reported as “inhibit”. The “CCK2R antagonism, in words” value in data set [12] is “antagonized”.

`CC(=O)N[C@@H](CS)C(=O)O` [NAC, N-acetylcysteine]: the “Effect on basal EGFR tyrosine phosphorylation” value in data set [8] (5 mM (Fig. 4A)) is recorded as “no effect”. Also, in [8] (setting [17]), the “Inhibition of CCK-8-induced EGFR transactivation” value is given as “inhibited significantly; also recorded: inhibited the increase in EGFR transactivation”.

`COc1cccc(-c2cc(=O)c3ccccc3o2)c1N` [PD98059]: in [2], the “Inhibition of CCK-8-induced ERK phosphorylation (T. Moody, unpublished)” value was “blocked”.

In the case of `CC(C)(C)n1nc(-c2ccc(Cl)cc2)c2c(N)ncnc21` [PP2], in [2], the “Inhibition of CCK-8-induced ERK phosphorylation, in words” value is listed as “significantly inhibited”. Moreover, the “Effect on CCK-8-stimulated increase in P-Src and P-ERK in AR42J cells” value in data set [1] (ref Ferrand et al., 2006) is listed as “inhibited”. Besides, the “Inhibition of CCK-8-induced EGFR tyrosine phosphorylation” value in data set [8] (10 µM PP2 (Fig. 4C, D), p < 0.01 relative to CCK-8) is recorded as “significantly inhibited; also recorded: inhibited the increase in EGFR transactivation”. In data set [8] (setting [16]), the “Effect on basal EGFR tyrosine phosphorylation” value is “no effect”. Further, the “Inhibition of CCK-8-induced EGFR tyrosine phosphorylation, in words” value in [8] was “blocked; also recorded: significantly inhibited”.

As to `O=S(=O)(O)c1cc(O)c(O)c(S(=O)(=O)O)c1` [Tiron], in data set [5], the “Inhibition of CCK-8-induced ROS increase, in words” value was “inhibited”. In data set [8] (5 mM (Fig. 4A)), the “Effect on basal EGFR tyrosine phosphorylation” value was “no effect”. The “Inhibition of CCK-8-induced EGFR transactivation” value in [8] (setting [17]) is on record as “inhibited significantly; also recorded: inhibited the increase in EGFR transactivation”. The results for the “Inhibition of CCK-8-induced EGFR tyrosine phosphorylation, in words” value in data set [8] and in [8] (listed as tiron) were “inhibited” and “blocked”, respectively.

On to “EGF: epidermal growth factor, EGFR ligand (NSDSECPLSHDGYCLHDGVCMYIEALDKYACNCVVGYIGERCQYRDLKWWELR; UniProt P01133 971-1023, looked up)”, for which the “EGFR tyrosine phosphorylation, in words” value in data set [8] (0.1 µM (100 nM) ligand, 2 min, NCI-H727) is listed as “strongly”.

For gastrin, the “Effect on cytosolic Ca2+ in GLC19 cells” value in [13] was “no effect”. Further, the “Effect on cytosolic Ca2+, in words” value in [6] (10 nM, Fura-2AM, 37°C, representative of 3 others (Fig. 3A, B)) is “increased the cytosolic Ca^2+”. Besides, the “Effect on heparin binding (HB) EGF” value in data set [14] (PKC-dependent, ref Sinclair et al., 2004) was “increases”. For the same molecule, the “Effect on COX-2 and prostaglandin E2 expression” value in data set [14] (colon cancer cells, ref Colucci et al., 2005) is “increases COX-2 and prostaglandin E2 expression”. In [14] (gastric epithelial cells, ref Wroblewski et al., 2002), the “Effect on MMP9 expression” value was “increases”. Moreover, the “Effect on ELK-1 and COX-2 expression” value in data set [14] (intestinal epithelial cells, ref Guo et al., 2002) was “increased ELK-1 and COX-2 expression”. Further, the “Effect on c-fos expression” value in data set [14] (ref Stepan et al., 1999) is reported as “increases c-fos expression”. For the same molecule, the “Effect on expression of HB-EGF and amphiregulin” value in data set [14] (ref Tsutsui et al., 1997) is on record as “increases”. In addition, in data set [15], the “Effect on cytosolic Ca2+ in NCI-H510 cells” value is given as “increased cytosolic Ca^2+”.
